Reference: ChEMBL document CHEMBL1201862, “PubChem BioAssay data set” (2004)
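Growth conditions: 96-well plates. Treatment: test compound, 48 hours, 5 concentrations. Analysis: linear interpolation between bracketing concentrations; unreached endpoints set to highest concentration. At the GI50, growth is halved.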 The source made the active and inactive calls. No stated cut-off is given here; in the data, active = GI50 up to about 1.1 µM and inactive = higher. Non-standard residues stand in square brackets, D forms with d. Residues, ends and D or L forms follow the SMILES beside them. β3hI = CC[CH](C)[CH](N)CC(=O)O

Legend:
Test in all cases: NCI tumour cell line growth inhibition, 48 h
[1] = test system: 786-0
[2] = test system: A498
[3] = test system: A549
[4] = test system: ACHN
[5] = test system: BT-549
[6] = test system: CAKI-1
[7] = test system: CCRF-CEM
[8] = test system: COLO 205
[9] = test system: DU-145
[10] = test system: EKVX
[11] = test system: HCT-116
[12] = test system: HCT-15
[13] = test system: HL-60
[14] = test system: HOP-62
[15] = test system: HOP-92
[16] = test system: HT-29
[17] = test system: Hs-578T
[18] = test system: IGROV-1
[19] = test system: KM12
[20] = test system: LOX IMVI
[21] = test system: M14
[22] = test system: MCF7
[23] = test system: MDA-MB-231
[24] = test system: MDA-MB-435
[25] = test system: MDA-N
[26] = test system: MOLT-4
[27] = test system: Malme-3M
[28] = test system: NCI-H226
[29] = test system: NCI-H23
[30] = test system: NCI-H522
[31] = test system: NCI/ADR-RES
[32] = test system: OVCAR-3
[33] = test system: OVCAR-4
[34] = test system: OVCAR-5
[35] = test system: OVCAR-8
[36] = test system: PC-3
[37] = test system: RPMI-8226
[38] = test system: SF-268
[39] = test system: SF-295
[40] = test system: SF-539
[41] = test system: SK-MEL-28
[42] = test system: SK-MEL-2
[43] = test system: SK-MEL-5
[44] = test system: SK-OV-3
[45] = test system: SN12C
[46] = test system: SNB-19
[47] = test system: SR
[48] = test system: SW-620
[49] = test system: T47D
[50] = test system: TK-10
[51] = test system: U-251
[52] = test system: UACC-257
[53] = test system: UACC-62
[54] = test system: UO-31
[55] = test system: K562
[56] = test system: NCI-H460
[57] = test system: RXF 393
[58] = test system: SNB-75

Measured: GI50

CCC(C)C(CC(=O)N1CCCC1C(=O)NC(C(=O)NC(C(=O)NCC(=O)NC(CC(N)=O)C(=O)NC(C(=O)NC(C(=O)NC(CCCCN)C(N)=O)C(C)CC)C(C)CC)C(C)C)C(C)CC)NC(=O)C(N)C(C)CC (stereo not drawn) (H-I[β3hI]PIVGNIIK-NH2; configuration not given here)
> 50 µM: [12]
inactive: [1] > 50 µM | [2] > 50 µM | [3] > 50 µM | [4] > 50 µM | [5] > 50 µM | [6] > 50 µM | [7] 10.5 µM | [8] > 50 µM | [9] > 50 µM | [10] > 50 µM | [11] > 50 µM | [13] > 50 µM | [14] > 50 µM | [15] > 50 µM | [16] > 50 µM | [17] > 50 µM | [18] > 50 µM | [19] > 50 µM | [20] > 50 µM | [21] > 50 µM | [22] > 50 µM | [23] > 50 µM | [24] > 50 µM | [25] > 50 µM | [26] > 50 µM | [27] > 50 µM | [28] > 50 µM | [29] > 50 µM | [30] > 50 µM | [31] > 50 µM | [32] > 50 µM | [33] > 50 µM | [34] > 50 µM | [35] > 50 µM | [36] > 50 µM | [37] > 50 µM | [38] > 50 µM | [39] > 50 µM | [40] > 50 µM | [41] > 50 µM | [42] > 50 µM | [43] > 50 µM | [44] > 50 µM | [45] > 50 µM | [46] > 50 µM | [47] > 50 µM | [48] > 50 µM | [49] > 50 µM | [50] > 50 µM | [51] > 50 µM | [52] > 50 µM | [53] > 50 µM | [54] > 50 µM

Cc1cc(C2(c3cc(C)c(O)c(C(=O)O)c3)OS(=O)(=O)c3ccccc32)cc(C(=O)O)c1O
> 100 µM: [12]
active: [26] 0.205 µM
inactive: [1] > 100 µM | [2] > 100 µM | [3] > 100 µM | [4] > 100 µM | [5] > 100 µM | [6] > 100 µM | [8] > 100 µM | [9] > 100 µM | [10] > 100 µM | [11] > 100 µM | [13] > 100 µM | [14] > 100 µM | [15] > 100 µM | [16] > 100 µM | [17] > 100 µM | [18] > 100 µM | [55] > 100 µM | [19] > 100 µM | [20] > 100 µM | [21] > 100 µM | [22] > 100 µM | [23] > 100 µM | [24] > 100 µM | [25] > 100 µM | [27] > 100 µM | [28] > 100 µM | [56] > 100 µM | [30] > 100 µM | [31] > 100 µM | [32] > 100 µM | [33] > 100 µM | [34] > 100 µM | [35] > 100 µM | [36] > 100 µM | [37] > 100 µM | [57] > 100 µM | [38] > 100 µM | [39] > 100 µM | [40] > 100 µM | [41] > 100 µM | [42] > 100 µM | [43] > 100 µM | [44] > 100 µM | [45] > 100 µM | [46] > 100 µM | [58] > 100 µM | [47] > 100 µM | [48] > 100 µM | [49] > 100 µM | [50] > 100 µM | [51] > 100 µM | [52] > 100 µM | [53] > 100 µM | [54] > 100 µM
